Assay results from ChEMBL document CHEMBL5360530, “Structure activity relationship (SAR) and anticancer activity of pyrrolidine derivatives: Recent developments and future prospects (A review)” (Eur J Med Chem, 2023).
pIC50: −log10 of the molar value. ≈ marks a conversion by molar mass, not a printed value.

Key:
[1] = tested on: COS-7; test: Anticancer activity against COS-7 cells assessed as cell growth inhibition at 50 uM measured after 48 hrs by MTT assay relative to control; type: functional; details: Chlorocebus aethiops
[2] = tested on: A549; test: Anticancer activity against human A549 cells assessed as cell growth inhibition measured after 48 hrs by MTT assay; type: functional, cell-based; details: A549, 48 h
[3] = tested on: MCF7; test: Anticancer activity against human MCF7 cells assessed as cell growth inhibition measured after 48 hrs by MTT assay; type: functional, cell-based; details: MCF7, 48 h
[4] = tested on: MCF7; test: Anticancer activity against human MCF7 cells assessed as cell growth inhibition by SRB assay; type: functional, cell-based
[5] = tested on: MDA-MB-435; test: Anticancer activity against human MDA-MB-435 cells assessed as cell growth inhibition by SRB assay; type: functional, cell-based
[6] = tested on: MCF7; test: Growth inhibition of human MCF7 cells assessed as cell growth inhibition by SRB assay; type: functional
[7] = tested on: PC-3; test: Anticancer activity against human PC-3 cells assessed as cell death at 50 uM measured after 72 hrs by MTT assay relative to control; type: functional
[8] = tested on: MCF7; test: Anticancer activity against human MCF7 cells assessed as cell growth inhibition measured after 24 hrs by MTT assay; type: functional, cell-based; details: MCF7, 24 h
[9] = Cytotoxicity against human Chang liver cells assessed as cell growth inhibition measured after 24 hrs by DAPI and propidium iodide staining based assay; type: toxicity
[10] = tested on: K562; test: Anticancer activity against human K562 cells assessed as cell growth inhibition measured after 48 hrs by MTT assay; type: functional, cell-based; details: K562, 48 h
[11] = tested on: HT-29; test: Anticancer activity against human HT-29 cells assessed as cell growth inhibition measured after 48 hrs by MTT assay; type: functional, cell-based; details: HT-29, 48 h
[12] = tested on: HCT-116; test: Anticancer activity against human HCT-116 cells assessed as cell growth inhibition measured after 24 hrs by SRB assay; type: functional, cell-based; details: HCT-116, 24 h
[13] = tested on: Huh-7; test: Anticancer activity against human Huh-7 cells assessed as cell growth inhibition measured after 24 hrs by SRB assay; type: functional, cell-based; details: Huh-7, 24 h
[14] = tested on: Mahlavu; test: Anticancer activity against human Mahlavu cells assessed as cell growth inhibition measured after 24 hrs by SRB assay; type: functional, cell-based
[15] = tested on: MCF7; test: Anticancer activity against human MCF7 cells assessed as cell growth inhibition measured after 24 hrs by SRB assay; type: functional, cell-based; details: MCF7, 24 h
[16] = tested on: HT-29; test: Anticancer activity against human HT-29 cells assessed as cell growth inhibition measured after 24 hrs by MTT assay; type: functional, cell-based; details: HT-29, 24 h
[17] = tested on: FaDu; test: Anticancer activity against human FaDu cells assessed as cell growth inhibition measured after 48 hrs; type: functional, cell-based
[18] = tested on: PC-3; test: Potency index, ratio of cisplatin IC50 to test compound IC50 for anticancer activity against human PC-3 cells; type: functional
[19] = tested on: HepG2; test: Anticancer activity against human HepG2 cell assessed as cell growth inhibition; type: functional, cell-based

COc1cc(OC)c(C2NCCC23C(=O)Nc2ccccc23)cc1OC (centres undefined)
inhibition at 50 µM [1]: 0.51%

O=C(Nc1cc2ccccc2oc1=O)[C@@H]1CCCN1S(=O)(=O)c1ccc(Cl)cc1
pIC50 [2]: 5.42
pIC50 [3]: 5.36

CCOC(=O)[C@H]1CCCN1CC(=O)Nc1ccc2c(C)cc(=O)oc2c1
pIC50 [2]: 7.62
pIC50 [3]: 6.45

O=C(N[C@H]1C[C@@H](C(=O)NO)N(S(=O)(=O)c2ccc(Oc3ccccc3)cc2)C1)c1cccnc1
pIC50 [2]: 5.30

N#CC1=C(N)OC2=C(c3ccccc3C2=O)C12C(=O)Nc1ccc(Br)cc12 (centres undefined)
pIC50 [4]: ≤ 4.28
pIC50 [5]: ≤ 5.44

N#C[C@H]1CCCN1CC(=O)Nc1cc2ccccc2oc1=O
pIC50 [2]: 5.36
pIC50 [3]: 5.36

O=C(/C=C/c1c(Cl)cccc1Cl)c1ccc(OCCN2CCCC2)cc1
GI50 [6]: > 80 µg/mL

Cc1cc(=O)oc2cc(NC(=O)CN3CCC[C@@H]3C#N)ccc12
pIC50 [2]: 5.40
pIC50 [3]: 5.35

COC(=O)[C@H]1C[C@@H](C(=O)OC)C(c2ccccc2)(c2ccccc2)N1C(=O)Cn1cc(CCc2ccccc2)nn1
Activity [7]: 25%

NC(=O)[C@H]1CCCN1CC(=O)Nc1cc2ccccc2oc1=O
pIC50 [2]: 7.62
pIC50 [3]: 6.45

COc1cccc2c1C(=O)c1c(O)c3c(c(O)c1C2=O)C[C@@](O)(C(=O)CO)C[C@@H]3O[C@H]1C[C@H](N)[C@H](O)[C@H](C)O1.Cl [DOXORUBICIN HYDROCHLORIDE]
GI50 [6]: < 10 µg/mL

CC/C(=C(\c1ccccc1)c1ccc(OCCN(C)C)cc1)c1ccccc1 [TAMOXIFEN]
pIC50 [8]: 4.69
GI50 [6]: < 10 µg/mL
IC50 at 24 h [9]: 46.2 µM

O=C1CCC(=O)N1CC(=O)N1N=C(c2ccccc2)CC1c1ccc(F)cc1 (centres undefined)
pIC50 [10]: 6.41
pIC50 [11]: 6.41
pIC50 [3]: 6.41

N#CC1=C(N)OC2=C(c3ccccc3C2=O)C12C(=O)Nc1ccccc12 (centres undefined)
pIC50 [4]: ≤ 4.28
pIC50 [5]: ≤ 5.44

N#CC1=C(N)OC2=C(c3ccccc3C2=O)C12C(=O)Nc1ccc(Cl)cc12 (centres undefined)
pIC50 [4]: ≤ 4.28
pIC50 [5]: ≤ 5.44

COc1ccc(C2NCCC23C(=O)Nc2ccccc23)cc1OC (centres undefined)
inhibition at 50 µM [1]: 0.51%

O=C(/C=C/c1ccc(OCCN2CCCC2)cc1)c1ccc(Cl)cc1Cl
GI50 [6]: > 80 µg/mL

CCOC(=O)[C@H]1CCCN1CC(=O)Nc1cc2ccccc2oc1=O
pIC50 [2]: 5.51
pIC50 [3]: 5.03

CC(=O)Oc1ccc(C(=O)/C=C2/C(=O)Nc3ccc(S(=O)(=O)N4CCOCC4)cc32)cc1
pIC50 [12]: 5.29

COC(=O)[C@H]1C[C@@H](C(=O)OC)C(c2ccccc2)(c2ccccc2)N1C(=O)Cn1cc(-c2ccccc2)nn1
Activity [7]: 30%

CC(C)C[C@@H]1N2[C@H](c3ccccc3)[C@H](c3ccccc3)OC(=O)[C@H]2[C@H](c2ccc([N+](=O)[O-])cc2)[C@@]12C(=O)Nc1ccccc12
pIC50 [13]: 4.11
pIC50 [12]: 5.41
pIC50 [14]: 4.83
pIC50 [15]: 5.32

O=C1CCC(=O)N1CC(=O)N1N=C(c2ccccc2)CC1c1ccc(Cl)c(Cl)c1 (centres undefined)
pIC50 [10]: 4.21
pIC50 [11]: 6.41
pIC50 [3]: 6.11

O=C(/C=C/c1ccccc1)c1ccc(OCCN2CCCC2)cc1
GI50 [6]: < 10 µg/mL

CCNC(=O)[C@H]1[C@H](c2ccc([N+](=O)[O-])cc2)[C@@]2(C(=O)Nc3ccccc32)[C@H](CC(C)C)N1[C@H](c1ccccc1)[C@@H](O)c1ccccc1
pIC50 [13]: 5.09
pIC50 [12]: 5.41
pIC50 [14]: 4.83
pIC50 [15]: 5.32

Cc1cc(=O)oc2cc(NC(=O)CN3CCCC3)ccc12
pIC50 [2]: 5.36
pIC50 [3]: 5.32

COc1cc(/C=N/N2C(=O)c3ccccc3C2=O)cc(OC)c1O
pIC50 [8]: 3.53
pIC50 [16]: 3.56

COC(=O)[C@H]1C[C@@H](C(=O)OC)C(c2ccccc2)(c2ccccc2)N1C(=O)Cn1cc(CC2CCCCC2)nn1
Activity [7]: 64%

O=C(/C=C/c1ccco1)c1ccc(OCCN2CCCC2)cc1
GI50 [6]: > 80 µg/mL

Cc1cc(=O)oc2cc(NC(=O)[C@@H]3CCCN3S(=O)(=O)c3ccccc3)ccc12
pIC50 [2]: 4.74
pIC50 [3]: 5.59

Cc1cc(=O)oc2cc(NC(=O)CN3CCC[C@@H]3C(N)=O)ccc12
pIC50 [2]: 7.62
pIC50 [3]: 6.45

O=C1c2ccccc2C(=O)N1/N=C/c1ccc(F)c(Br)c1
pIC50 [8]: 3.53
pIC50 [16]: 3.60

O=C1c2ccccc2C(=O)N1/N=C/c1ccccc1
pIC50 [8]: 3.53
pIC50 [16]: 3.19

COC(=O)[C@H]1C[C@@H](C(=O)OC)C(c2ccccc2)(c2ccccc2)N1C(=O)Cn1cc(C2CCCC2)nn1
Activity [7]: 30%

O=C1Nc2ccccc2C12CCNC2c1cccc(F)c1 (centres undefined)
inhibition at 50 µM [1]: 0.51%

CC(=O)O[C@H]1C(=O)[C@@]2(C)[C@H]([C@H](OC(=O)c3ccccc3)[C@]3(O)C[C@H](OC(=O)[C@H](O)[C@@H](NC(=O)c4ccccc4)c4ccccc4)C(C)=C1C3(C)C)[C@]1(OC(C)=O)CO[C@@H]1C[C@@H]2O [PACLITAXEL]
pIC50 [10]: 6.46
pIC50 [11]: 4.70
pIC50 [3]: 4.33

O=C1Nc2ccccc2C12CCNC2c1cc(C(F)(F)F)ccc1C(F)(F)F (centres undefined)
inhibition at 50 µM [1]: 0.51%

O=C1Nc2ccccc2C12N[C@H](Cc1ccccc1)[C@@H](c1ccccc1Br)[C@@]21CN(/C=C/c2ccccc2)C/C(=C\c2ccccc2Br)C1=O (some centres undefined)
pIC50 ([17]; Homo sapiens, FaDu, 48 h): ≤ 4.72

O=C(CN1CCCC1)Nc1cc2ccccc2oc1=O
pIC50 [2]: 5.74
pIC50 [3]: 5.32

Cc1ccccc1/C=C1\CN(/C=C/c2ccccc2)C[C@]2(C1=O)[C@H](c1ccccc1C)[C@@H](Cc1ccccc1)NC21C(=O)Nc2ccccc21 (some centres undefined)
pIC50 ([17]; Homo sapiens, FaDu, 48 h): 4.63

O=C(c1c[nH]c2ccccc12)[C@@H]1[C@@H](c2ccc(Cl)cc2Cl)[C@@H]2CSCN2[C@@]12C(=O)Nc1ccccc12
Ratio IC50 [18]: >4.3
pIC50 [19]: 5.26

CC(C)(C)c1cc(/C=N/N2C(=O)c3ccccc3C2=O)c(O)c(C(C)(C)C)c1
pIC50 [8]: 3.53
pIC50 [16]: 3.18

Cc1ccc(/C=C2\CN(/C=C/c3ccccc3)C[C@]3(C2=O)[C@H](c2ccc(C)cc2)[C@@H](Cc2ccccc2)NC32C(=O)Nc3ccccc32)cc1 (some centres undefined)
pIC50 ([17]; Homo sapiens, FaDu, 48 h): ≤ 4.72

COc1ccc(/C=C2\CN(/C=C/c3ccccc3)C[C@]3(C2=O)[C@H](c2ccc(OC)cc2)[C@@H](Cc2ccccc2)NC32C(=O)Nc3ccccc32)cc1 (some centres undefined)
pIC50 ([17]; Homo sapiens, FaDu, 48 h): ≤ 4.72

Cc1cc(=O)oc2cc(NC(=O)[C@@H]3CCCN3S(=O)(=O)c3ccc(Cl)cc3)ccc12
pIC50 [2]: 4.56
pIC50 [3]: 5.15

CCc1ccc(CCOc2ccc(CC3SC(=O)NC3=O)cc2)nc1 (centres undefined) [PIOGLITAZONE]
pIC50 [10]: 6.54
pIC50 [11]: 4.39
pIC50 [3]: 7.15

COC(=O)[C@H]1C[C@@H](C(=O)OC)C(c2ccccc2)(c2ccccc2)N1C(=O)Cn1cc(C2CC2)nn1
Activity [7]: 25%

O=C1Nc2ccccc2C12N[C@H](Cc1ccccc1)[C@@H](c1ccccc1Cl)[C@@]21CN(/C=C/c2ccccc2)C/C(=C\c2ccccc2Cl)C1=O (some centres undefined)
pIC50 ([17]; Homo sapiens, FaDu, 48 h): ≤ 4.72

BLEOMYCIN
pIC50 ([17]; fadu): 4.51

O=C(/C=C/c1ccc(Cl)cc1Cl)c1ccc(OCCN2CCCC2)cc1
GI50 [6]: 24.7 µg/mL (≈ 63.3 µM)

O=C(N[C@H]1C[C@@H](C(=O)NO)N(S(=O)(=O)c2ccc(Oc3ccccc3)cc2)C1)c1cc(Br)cnc1Cl
pIC50 [2]: 5.30

CCCC(C)c1cn(CC(=O)N2[C@@H](C(=O)OC)C[C@@H](C(=O)OC)C2(c2ccccc2)c2ccccc2)nn1 (some centres undefined)
Activity [7]: 25%

O=C1Nc2ccccc2C12N[C@H](Cc1ccccc1)[C@@H](c1ccccc1)[C@@]21CN(/C=C/c2ccccc2)C/C(=C\c2ccccc2)C1=O (some centres undefined)
pIC50 ([17]; Homo sapiens, FaDu, 48 h): 4.72

N#CC1=C(N)OC2=C(c3ccccc3C2=O)C12C(=O)Nc1ccc(I)cc12 (centres undefined)
pIC50 [4]: ≤ 4.28
pIC50 [5]: ≤ 5.44

O=C1CCC(=O)N1CC(=O)N1N=C(c2ccccc2)CC1c1ccccc1 (centres undefined)
pIC50 [10]: 6.41
pIC50 [11]: 6.41
pIC50 [3]: 6.41

O=C(Nc1cc2ccccc2oc1=O)[C@@H]1CCCN1S(=O)(=O)c1ccccc1
pIC50 [2]: 5.13
pIC50 [3]: 5.03
